Source: BindingDB's records for doi:10.1021/jm00008a008 (Arris Pharmaceutical, 1995)

Test: Tested for activity against 5-hydroxytryptamine 1A receptor from bovine hippocampus

SMILES | Ki
COc1cccc2c1C[C@H]1CCN(Cc3ccccc3)[C@H]1C2 [1-Benzyl-5-methoxy-2,3,3a,4,9,9a-hexahydro-1H-benzo[f]indole] | 1000 nM
COc1cccc2c1C[C@H]1CCN[C@H]1C2 [5-Methoxy-2,3,3a,4,9,9a-hexahydro-1H-benzo[f]indole] | 1000 nM
CCCN1[C@H](C)C[C@H]2c3c(O)cccc3CC[C@H]21 [(2R,3aR,9bS)-2-Methyl-3-propyl-2,3,3a,4,5,9b-hexahydro-1H-benzo[e]indol-9-ol] | 16 nM
COc1cccc2c1CC[C@@H]1[C@H]2CCN1CC1CC1 [(3aR,9bS)-3-Cyclopropylmethyl-6-methoxy-2,3,3a,4,5,9b-hexahydro-1H-benzo[e]indole] | 1000 nM
CCCN1CC[C@H]2c3c(cccc3OC)CC[C@@H]21 [(3aS,9bS)-9-Methoxy-3-propyl-2,3,3a,4,5,9b-hexahydro-1H-benzo[e]indole] | 0.2 nM
